Test results taken from paper PMC6199744, “Development of Chemical Proteomics for the Folateome and Analysis of the Kinetoplastid Folateome” (ACS Infectious Diseases, 2018).
Like-named read-outs stand apart in the source and are kept apart here.

Tests used:
Format in all cases: binding
[1] = target: T1, HeLa cell extract proteins (Homo sapiens, UniProt O94822)
T1 construct: endogenous in cells; host or cells: HeLa cell extract

[2] = target: T2, HeLa cell extract proteins (Homo sapiens, UniProt P07339)
T2 construct: endogenous in cells; host or cells: HeLa cell extract

[3] = target: T3, HeLa cell extract proteins (Homo sapiens, UniProt Q16576)
T3 construct: endogenous in cells; host or cells: HeLa cell extract

[4] = target: T4, HeLa cell extract proteins (Homo sapiens, UniProt Q9ULK4)
T4 construct: endogenous in cells; host or cells: HeLa cell extract
T4 sequence (Q9ULK4 1-1368): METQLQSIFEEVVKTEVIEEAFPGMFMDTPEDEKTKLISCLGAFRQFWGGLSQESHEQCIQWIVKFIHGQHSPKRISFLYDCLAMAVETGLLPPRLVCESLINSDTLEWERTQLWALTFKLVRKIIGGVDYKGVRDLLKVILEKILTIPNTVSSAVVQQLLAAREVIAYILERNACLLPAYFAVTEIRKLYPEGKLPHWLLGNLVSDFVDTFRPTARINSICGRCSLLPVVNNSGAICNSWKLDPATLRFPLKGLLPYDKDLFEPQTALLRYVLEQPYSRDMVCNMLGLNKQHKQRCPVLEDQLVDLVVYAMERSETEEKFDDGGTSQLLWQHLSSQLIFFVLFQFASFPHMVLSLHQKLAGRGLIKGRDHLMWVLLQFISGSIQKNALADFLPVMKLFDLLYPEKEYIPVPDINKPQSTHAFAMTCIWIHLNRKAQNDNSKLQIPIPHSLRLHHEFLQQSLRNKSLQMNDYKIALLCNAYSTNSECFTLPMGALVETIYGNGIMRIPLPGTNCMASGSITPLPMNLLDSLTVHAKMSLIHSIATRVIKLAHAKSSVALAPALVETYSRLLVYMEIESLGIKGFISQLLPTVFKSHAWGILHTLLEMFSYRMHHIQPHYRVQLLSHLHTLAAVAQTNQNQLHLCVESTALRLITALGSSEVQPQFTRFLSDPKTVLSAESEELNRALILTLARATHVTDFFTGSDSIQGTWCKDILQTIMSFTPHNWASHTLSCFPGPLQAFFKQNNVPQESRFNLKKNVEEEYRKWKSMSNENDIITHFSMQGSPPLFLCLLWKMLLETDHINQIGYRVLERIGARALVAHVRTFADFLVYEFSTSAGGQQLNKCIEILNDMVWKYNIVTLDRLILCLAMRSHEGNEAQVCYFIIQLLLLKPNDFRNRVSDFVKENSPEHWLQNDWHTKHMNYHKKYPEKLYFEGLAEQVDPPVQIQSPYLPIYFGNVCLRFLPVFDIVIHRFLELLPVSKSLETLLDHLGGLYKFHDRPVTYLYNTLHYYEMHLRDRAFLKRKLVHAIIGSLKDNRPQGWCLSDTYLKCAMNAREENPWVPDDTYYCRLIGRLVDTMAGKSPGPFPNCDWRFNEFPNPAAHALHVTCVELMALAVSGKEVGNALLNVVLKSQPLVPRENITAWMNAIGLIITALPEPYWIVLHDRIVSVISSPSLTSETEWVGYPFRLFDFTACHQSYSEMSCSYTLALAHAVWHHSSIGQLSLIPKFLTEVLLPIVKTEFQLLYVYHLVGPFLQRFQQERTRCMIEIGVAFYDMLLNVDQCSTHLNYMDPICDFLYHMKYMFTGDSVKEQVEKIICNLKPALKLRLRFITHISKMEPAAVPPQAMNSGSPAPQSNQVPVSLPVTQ

[5] = target: T5, HeLa cell extract proteins (Homo sapiens, UniProt O95831)
T5 construct: endogenous in cells; host or cells: HeLa cell extract

[6] = target: T6, HeLa cell extract proteins (Homo sapiens, UniProt Q8N1F7)
T6 construct: endogenous in cells; host or cells: HeLa cell extract
T6 sequence (Q8N1F7 1-819): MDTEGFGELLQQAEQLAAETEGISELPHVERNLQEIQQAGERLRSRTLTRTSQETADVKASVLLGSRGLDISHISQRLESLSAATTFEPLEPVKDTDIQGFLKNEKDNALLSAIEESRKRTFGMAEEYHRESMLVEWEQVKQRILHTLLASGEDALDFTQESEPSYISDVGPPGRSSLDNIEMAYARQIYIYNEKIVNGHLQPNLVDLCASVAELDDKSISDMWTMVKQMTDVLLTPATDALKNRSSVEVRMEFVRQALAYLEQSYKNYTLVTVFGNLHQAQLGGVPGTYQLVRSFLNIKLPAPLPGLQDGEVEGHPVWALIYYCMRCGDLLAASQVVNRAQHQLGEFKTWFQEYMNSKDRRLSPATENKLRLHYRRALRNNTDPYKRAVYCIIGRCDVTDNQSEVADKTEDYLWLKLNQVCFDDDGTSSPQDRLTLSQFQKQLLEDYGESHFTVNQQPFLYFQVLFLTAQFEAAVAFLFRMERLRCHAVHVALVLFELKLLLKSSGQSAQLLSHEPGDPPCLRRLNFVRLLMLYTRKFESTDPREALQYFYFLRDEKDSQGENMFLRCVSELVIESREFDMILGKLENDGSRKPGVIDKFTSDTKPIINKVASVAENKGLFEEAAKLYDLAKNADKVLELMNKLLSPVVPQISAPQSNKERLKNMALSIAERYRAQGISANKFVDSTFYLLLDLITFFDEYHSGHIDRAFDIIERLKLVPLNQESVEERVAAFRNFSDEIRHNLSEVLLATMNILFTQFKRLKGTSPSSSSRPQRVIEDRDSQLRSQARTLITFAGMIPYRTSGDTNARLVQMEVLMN

[7] = target: T7, HeLa cell extract proteins (Homo sapiens, UniProt P52948)
T7 construct: endogenous in cells; host or cells: HeLa cell extract

[8] = target: T8, HeLa cell extract proteins (Homo sapiens, UniProt Q5JVF3)
T8 construct: endogenous in cells; host or cells: HeLa cell extract

T2 sequence (P07339 65-412): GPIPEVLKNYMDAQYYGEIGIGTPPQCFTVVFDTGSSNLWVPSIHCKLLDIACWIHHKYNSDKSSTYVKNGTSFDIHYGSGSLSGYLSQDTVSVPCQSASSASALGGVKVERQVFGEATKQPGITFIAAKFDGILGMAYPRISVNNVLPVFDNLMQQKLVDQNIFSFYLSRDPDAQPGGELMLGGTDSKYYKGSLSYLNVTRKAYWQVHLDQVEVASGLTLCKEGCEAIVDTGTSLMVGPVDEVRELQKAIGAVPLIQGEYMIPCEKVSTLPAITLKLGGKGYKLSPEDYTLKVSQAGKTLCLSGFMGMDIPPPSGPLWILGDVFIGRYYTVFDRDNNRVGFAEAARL
T5 sequence (O95831 102-613): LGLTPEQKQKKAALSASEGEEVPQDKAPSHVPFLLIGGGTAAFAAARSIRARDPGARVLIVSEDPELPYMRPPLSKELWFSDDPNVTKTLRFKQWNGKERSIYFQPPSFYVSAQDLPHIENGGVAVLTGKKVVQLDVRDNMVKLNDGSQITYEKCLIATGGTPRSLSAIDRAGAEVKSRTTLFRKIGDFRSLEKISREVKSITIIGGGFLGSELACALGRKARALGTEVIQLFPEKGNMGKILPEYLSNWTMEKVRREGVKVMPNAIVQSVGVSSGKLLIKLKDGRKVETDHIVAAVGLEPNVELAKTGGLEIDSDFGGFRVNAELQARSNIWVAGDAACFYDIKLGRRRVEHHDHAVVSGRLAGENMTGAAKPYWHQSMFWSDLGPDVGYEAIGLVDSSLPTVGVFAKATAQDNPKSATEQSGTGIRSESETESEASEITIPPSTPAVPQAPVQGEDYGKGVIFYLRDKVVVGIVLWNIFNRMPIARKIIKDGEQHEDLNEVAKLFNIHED
T3 sequence (Q16576 whole entry): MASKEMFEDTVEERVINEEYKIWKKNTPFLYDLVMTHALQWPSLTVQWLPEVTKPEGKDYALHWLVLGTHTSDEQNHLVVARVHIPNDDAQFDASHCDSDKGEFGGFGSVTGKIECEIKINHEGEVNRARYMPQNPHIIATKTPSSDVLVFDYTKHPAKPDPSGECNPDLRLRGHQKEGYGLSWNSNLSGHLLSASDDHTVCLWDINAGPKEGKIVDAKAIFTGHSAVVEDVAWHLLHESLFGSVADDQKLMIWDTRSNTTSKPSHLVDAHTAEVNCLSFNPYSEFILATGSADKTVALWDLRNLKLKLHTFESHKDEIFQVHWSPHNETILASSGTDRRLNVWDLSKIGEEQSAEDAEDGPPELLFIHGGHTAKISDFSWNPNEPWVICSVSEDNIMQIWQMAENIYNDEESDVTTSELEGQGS
T7 sequence (P52948 whole entry): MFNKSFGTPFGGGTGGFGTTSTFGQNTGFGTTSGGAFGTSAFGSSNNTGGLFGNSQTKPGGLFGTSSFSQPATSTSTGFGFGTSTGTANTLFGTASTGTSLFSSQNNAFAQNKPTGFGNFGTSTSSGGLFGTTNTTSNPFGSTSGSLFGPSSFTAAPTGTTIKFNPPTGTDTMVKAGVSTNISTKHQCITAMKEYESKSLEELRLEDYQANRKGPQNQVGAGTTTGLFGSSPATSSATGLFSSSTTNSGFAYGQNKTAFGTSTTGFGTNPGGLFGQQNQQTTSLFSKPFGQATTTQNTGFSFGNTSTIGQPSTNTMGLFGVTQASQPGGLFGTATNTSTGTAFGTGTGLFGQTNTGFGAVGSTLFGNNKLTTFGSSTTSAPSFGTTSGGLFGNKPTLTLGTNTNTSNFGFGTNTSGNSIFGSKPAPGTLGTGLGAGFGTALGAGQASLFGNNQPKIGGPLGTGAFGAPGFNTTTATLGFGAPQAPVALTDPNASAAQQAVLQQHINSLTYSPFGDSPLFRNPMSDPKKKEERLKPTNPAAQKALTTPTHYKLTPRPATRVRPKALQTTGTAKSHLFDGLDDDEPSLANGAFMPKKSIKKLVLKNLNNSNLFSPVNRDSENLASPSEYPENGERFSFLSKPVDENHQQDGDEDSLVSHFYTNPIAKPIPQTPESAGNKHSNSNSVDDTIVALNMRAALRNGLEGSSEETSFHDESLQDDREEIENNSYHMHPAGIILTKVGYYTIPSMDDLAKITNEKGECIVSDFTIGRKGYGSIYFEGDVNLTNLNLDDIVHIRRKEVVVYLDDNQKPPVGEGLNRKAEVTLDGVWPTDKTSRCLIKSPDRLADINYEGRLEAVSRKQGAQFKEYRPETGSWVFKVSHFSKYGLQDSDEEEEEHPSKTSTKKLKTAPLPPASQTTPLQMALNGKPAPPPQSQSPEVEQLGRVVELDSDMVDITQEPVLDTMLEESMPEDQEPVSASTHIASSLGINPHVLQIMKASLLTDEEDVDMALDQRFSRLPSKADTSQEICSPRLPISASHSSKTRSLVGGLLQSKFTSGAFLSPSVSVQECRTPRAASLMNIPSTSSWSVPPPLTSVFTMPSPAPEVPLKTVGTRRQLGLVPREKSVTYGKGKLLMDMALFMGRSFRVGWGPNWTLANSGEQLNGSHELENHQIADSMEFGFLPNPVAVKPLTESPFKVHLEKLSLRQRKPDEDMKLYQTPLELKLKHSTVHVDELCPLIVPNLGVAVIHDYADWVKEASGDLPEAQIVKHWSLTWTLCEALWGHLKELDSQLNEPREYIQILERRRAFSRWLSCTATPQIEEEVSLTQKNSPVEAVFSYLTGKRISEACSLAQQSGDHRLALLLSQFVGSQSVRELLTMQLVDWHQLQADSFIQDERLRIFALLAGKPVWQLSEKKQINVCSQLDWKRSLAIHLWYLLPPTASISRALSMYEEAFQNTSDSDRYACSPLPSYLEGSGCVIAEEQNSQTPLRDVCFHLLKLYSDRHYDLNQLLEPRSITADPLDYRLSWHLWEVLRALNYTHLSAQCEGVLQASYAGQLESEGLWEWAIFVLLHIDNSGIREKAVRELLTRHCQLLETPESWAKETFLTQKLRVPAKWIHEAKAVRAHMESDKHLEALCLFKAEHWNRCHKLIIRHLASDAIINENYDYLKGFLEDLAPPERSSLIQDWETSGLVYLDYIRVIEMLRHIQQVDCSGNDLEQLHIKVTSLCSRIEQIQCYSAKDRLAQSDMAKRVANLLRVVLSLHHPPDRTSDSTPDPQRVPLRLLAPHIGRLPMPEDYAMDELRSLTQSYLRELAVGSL
T1 sequence (O94822 whole entry): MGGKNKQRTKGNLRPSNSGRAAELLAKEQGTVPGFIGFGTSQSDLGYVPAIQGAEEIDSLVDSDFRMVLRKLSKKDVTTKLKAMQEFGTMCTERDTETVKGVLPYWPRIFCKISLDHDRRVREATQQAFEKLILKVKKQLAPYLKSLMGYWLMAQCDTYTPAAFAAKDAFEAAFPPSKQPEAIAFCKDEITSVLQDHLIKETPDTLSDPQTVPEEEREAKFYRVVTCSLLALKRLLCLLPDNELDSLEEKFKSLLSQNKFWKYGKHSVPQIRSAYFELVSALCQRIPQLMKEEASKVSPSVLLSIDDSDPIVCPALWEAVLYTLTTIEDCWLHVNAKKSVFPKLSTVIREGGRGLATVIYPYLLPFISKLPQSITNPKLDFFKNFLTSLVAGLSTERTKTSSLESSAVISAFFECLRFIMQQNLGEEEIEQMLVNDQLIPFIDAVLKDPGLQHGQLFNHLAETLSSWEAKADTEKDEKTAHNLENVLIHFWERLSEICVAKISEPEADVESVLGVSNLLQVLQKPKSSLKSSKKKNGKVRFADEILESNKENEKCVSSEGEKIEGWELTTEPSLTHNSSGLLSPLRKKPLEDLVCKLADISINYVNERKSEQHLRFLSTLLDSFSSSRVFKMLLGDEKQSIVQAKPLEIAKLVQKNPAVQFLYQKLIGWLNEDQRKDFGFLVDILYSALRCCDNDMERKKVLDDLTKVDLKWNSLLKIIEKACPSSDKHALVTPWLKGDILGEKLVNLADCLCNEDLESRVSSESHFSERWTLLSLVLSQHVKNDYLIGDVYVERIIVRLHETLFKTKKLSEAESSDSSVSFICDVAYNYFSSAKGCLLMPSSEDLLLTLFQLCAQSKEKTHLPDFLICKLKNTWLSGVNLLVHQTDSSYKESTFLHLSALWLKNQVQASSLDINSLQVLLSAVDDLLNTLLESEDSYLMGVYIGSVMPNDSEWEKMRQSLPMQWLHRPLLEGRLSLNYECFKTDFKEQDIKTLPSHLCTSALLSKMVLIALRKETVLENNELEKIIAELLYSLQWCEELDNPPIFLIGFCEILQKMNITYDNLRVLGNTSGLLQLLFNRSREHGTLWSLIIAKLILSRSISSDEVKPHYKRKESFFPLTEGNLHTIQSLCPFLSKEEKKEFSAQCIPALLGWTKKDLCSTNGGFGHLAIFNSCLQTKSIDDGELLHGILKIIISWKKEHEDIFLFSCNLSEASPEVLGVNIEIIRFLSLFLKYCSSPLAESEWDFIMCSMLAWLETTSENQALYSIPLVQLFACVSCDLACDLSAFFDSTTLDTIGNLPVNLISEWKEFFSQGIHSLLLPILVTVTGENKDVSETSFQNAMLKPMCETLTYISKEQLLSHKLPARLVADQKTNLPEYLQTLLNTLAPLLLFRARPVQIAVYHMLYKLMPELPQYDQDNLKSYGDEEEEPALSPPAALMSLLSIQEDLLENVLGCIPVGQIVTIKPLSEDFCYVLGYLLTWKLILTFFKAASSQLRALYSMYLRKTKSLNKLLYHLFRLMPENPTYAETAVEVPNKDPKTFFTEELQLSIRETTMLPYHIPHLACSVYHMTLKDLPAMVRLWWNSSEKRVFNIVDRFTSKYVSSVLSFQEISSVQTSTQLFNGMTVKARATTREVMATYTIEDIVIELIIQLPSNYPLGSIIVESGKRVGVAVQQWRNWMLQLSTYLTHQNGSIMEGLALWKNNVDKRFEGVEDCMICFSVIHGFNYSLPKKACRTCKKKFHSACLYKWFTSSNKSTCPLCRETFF

Row | Structure (SMILES) | fold changes relative to vehicle control ([1]; captured protein RNF160, HeLa) | fold changes relative to vehicle control ([2]; protein CTSD, HeLa) | fold changes relative to vehicle control ([3]; protein RBBP7, HeLa) | fold changes relative to vehicle control ([4]; captured protein MED23, HeLa) | fold changes relative to vehicle control ([5]; captured protein AIFM1, HeLa) | fold changes relative to vehicle control ([6]; captured protein NUP93, HeLa) | fold changes relative to vehicle control ([7]; captured protein NUP98, HeLa) | fold changes relative to vehicle control ([8]; HeLa, protein PCID2) | fold changes relative to vehicle control ([1]; HeLa, captured protein RNF160) | fold changes relative to vehicle control ([2]; HeLa, captured protein CTSD) | fold changes relative to vehicle control ([3]; HeLa, protein RBBP7) | fold changes relative to vehicle control ([4]; HeLa, protein MED23) | fold changes relative to vehicle control ([5]; protein AIFM1, HeLa) | fold changes relative to vehicle control ([6]; protein NUP93, HeLa) | fold changes relative to vehicle control ([7]; HeLa, protein NUP98) | fold changes relative to vehicle control ([8]; protein PCID2, HeLa) | further results
1 | CCCCCCOc1cccc(Cc2cnc(N)nc2N)c1 [compound 2] | 1.08 | 1.26 | 1.47 | 1.04 | 1 | 0.96 | 1.11 | 0.97 |  |  |  |  |  |  |  |  | 
2 | NCCOCCOCC(=O)Nc1nc2ncc(CNc3ccc(C(=O)NC(CCC(=O)O)C(=O)O)cc3)nc2c(=O)[nH]1 (centres unmarked) [compound 6] |  |  |  |  |  |  |  |  | 1.17 | 1.12 | 1.18 | 0.93 | 0.99 | 1.01 | 1.21 | 0.91 | 
3 | CCCCCCOc1ccc(Cc2cnc(N)nc2N)cc1 [compound 1] | 1.01 | 1.14 | 1.05 | 0.94 | 0.97 | 0.87 | 1.05 | 1.13 |  |  |  |  |  |  |  |  | 
4 | Nc1nc2c(c(=O)[nH]1)N(C=O)C(CNc1ccc(C(=O)N[C@@H](CCC(=O)O)C(=O)O)cc1)CN2 (some centres unmarked) [LEU, leucovorin] |  |  |  |  |  |  |  |  | 1.1 | 0.96 | 1.05 | 0.91 | 1.01 | 0.84 | 0.93 | 0.74 | 
5 | NCCCNc1ccc(C(=O)NC(CCC(=O)O)C(=O)O)cc1 (centres unmarked) [compound 7] |  |  |  |  |  |  |  |  | 1.17 | 0.96 | 0.98 | 0.97 | 1.06 | 0.9 | 1.05 | 0.75 | 
6 | Nc1nc2[nH]cc(CCc3ccc(C(=O)N[C@@H](CCC(=O)O)C(=O)O)cc3)c2c(=O)[nH]1 [PTX, pemetrexed] |  |  |  |  |  |  |  |  |  |  |  |  |  |  |  |  | fold changes relative to vehicle control [1]: 1.09; fold changes relative to vehicle control [2]: 1; fold changes relative to vehicle control [3]: 1.04; fold changes relative to vehicle control [4]: 0.95; fold changes relative to vehicle control [5]: 1.01; fold changes relative to vehicle control [6]: 0.91; fold changes relative to vehicle control [7]: 1; fold changes relative to vehicle control [8]: 0.68
7 | Nc1nc2cccc(-c3ccccc3)c2n1Cc1ccc(Cl)c(Cl)c1 [compound 3] | 1.13 | 0.95 | 0.85 | 1.1 | 0.92 | 0.96 | 1.06 | 1.2 |  |  |  |  |  |  |  |  | 
